Values of other authors in patent US10709751B2, “Chardonnay grape seed extract” (SHAKLEE CORPORATION, priority 2014, dated 2020).

Tests used:
[1] = laboratory studies
neurons = conditions: laboratory studies

| Compound | crossing of the blood-brain barrier [1] | growth and development of neurons (neurons) |
| --- | --- | --- |
| Oc1cc(O)c2c(c1)O[C@H](c1ccc(O)c(O)c1)[C@H](O)C2 [epicatechin] | cross the blood-brain barrier |  |
| COc1cc(/C=C/c2ccc(O)cc2)cc(OC)c1 [pterostilbene] | cross the blood-brain barrier |  |
| chlorogenic acids |  | stimulate growth and development of neurons |
